How the values were obtained:
[1] = molecular target: Protein-tyrosine kinase 6 (Homo sapiens) (UniProt Q13882); conditions: Compound concentration 1000.0 nM
[2] = molecular target: Glycogen synthase kinase-3 alpha (Homo sapiens) (UniProt P49840); conditions: Compound concentration 1000.0 nM
[3] = molecular target: Casein kinase I isoform alpha (Homo sapiens) (UniProt P48729); conditions: Compound concentration 1000.0 nM
[4] = molecular target: NT-3 growth factor receptor (Homo sapiens) (UniProt Q16288); conditions: Compound concentration 1000.0 nM
[5] = molecular target: Myosin light chain kinase, smooth muscle (Homo sapiens) (UniProt Q15746); conditions: Compound concentration 1000.0 nM
[6] = molecular target: Non-receptor tyrosine-protein kinase TYK2 (Homo sapiens) (UniProt P29597); conditions: Compound concentration 1000.0 nM
[7] = molecular target: Phosphatidylinositol 4,5-bisphosphate 3-kinase catalytic subunit alpha isoform (Homo sapiens) (UniProt P42336); conditions: Compound concentration 1000.0 nM
[8] = molecular target: Serine/threonine-protein kinase PAK 3 (Homo sapiens) (UniProt O75914); conditions: Compound concentration 1000.0 nM
[9] = molecular target: Phosphatidylinositol 4,5-bisphosphate 3-kinase catalytic subunit gamma isoform (Homo sapiens) (UniProt P48736); conditions: Compound concentration 1000.0 nM
[10] = molecular target: Casein kinase I isoform alpha-like (Homo sapiens) (UniProt Q8N752); conditions: Compound concentration 1000.0 nM
[11] = molecular target: Serine/threonine-protein kinase 16 (Homo sapiens) (UniProt O75716); conditions: Compound concentration 1000.0 nM
Sequence of Serine/threonine-protein kinase 16 (Homo sapiens) (O75716 whole entry): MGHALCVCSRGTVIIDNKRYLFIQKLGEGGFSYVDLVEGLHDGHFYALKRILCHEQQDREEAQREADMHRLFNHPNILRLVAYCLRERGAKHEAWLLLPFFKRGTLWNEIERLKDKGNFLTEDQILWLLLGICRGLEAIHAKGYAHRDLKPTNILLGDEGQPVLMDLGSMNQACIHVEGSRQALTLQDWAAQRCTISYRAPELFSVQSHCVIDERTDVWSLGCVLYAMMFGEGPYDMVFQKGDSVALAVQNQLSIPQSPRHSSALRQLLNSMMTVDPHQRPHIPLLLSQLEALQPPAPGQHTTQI

[12] = molecular target: Tyrosine-protein kinase BTK (Homo sapiens) (UniProt Q06187); conditions: Compound concentration 1000.0 nM
Sequence of Tyrosine-protein kinase BTK (Homo sapiens) (Q06187 whole entry): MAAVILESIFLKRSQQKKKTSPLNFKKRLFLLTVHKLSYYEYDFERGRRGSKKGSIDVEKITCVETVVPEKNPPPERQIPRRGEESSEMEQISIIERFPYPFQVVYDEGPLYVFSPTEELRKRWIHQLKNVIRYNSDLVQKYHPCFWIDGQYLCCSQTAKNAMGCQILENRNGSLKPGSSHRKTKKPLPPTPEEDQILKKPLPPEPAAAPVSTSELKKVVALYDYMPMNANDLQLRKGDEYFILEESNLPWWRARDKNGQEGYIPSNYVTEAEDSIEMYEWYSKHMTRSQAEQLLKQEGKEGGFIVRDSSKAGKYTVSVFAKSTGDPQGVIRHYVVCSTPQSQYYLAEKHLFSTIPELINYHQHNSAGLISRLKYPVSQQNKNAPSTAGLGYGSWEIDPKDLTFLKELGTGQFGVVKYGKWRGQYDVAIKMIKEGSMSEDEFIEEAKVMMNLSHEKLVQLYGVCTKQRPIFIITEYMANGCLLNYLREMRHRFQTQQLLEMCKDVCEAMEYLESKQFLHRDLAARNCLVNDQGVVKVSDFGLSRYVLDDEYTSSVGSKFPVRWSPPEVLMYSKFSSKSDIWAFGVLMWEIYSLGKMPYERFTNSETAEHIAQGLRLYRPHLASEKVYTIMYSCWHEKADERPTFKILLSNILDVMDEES

[13] = molecular target: Calcium/calmodulin-dependent protein kinase type 1 (Homo sapiens) (UniProt Q14012); conditions: Compound concentration 1000.0 nM
[14] = molecular target: Serine/threonine-protein kinase Nek7 (Homo sapiens) (UniProt Q8TDX7); conditions: Compound concentration 1000.0 nM
[15] = molecular target: Phosphatidylinositol 5-phosphate 4-kinase type-2 beta (Homo sapiens) (UniProt P78356); conditions: Compound concentration 1000.0 nM
[16] = molecular target: Dual specificity protein kinase CLK2 (Homo sapiens) (UniProt P49760); conditions: Compound concentration 1000.0 nM
[17] = molecular target: Ribosomal protein S6 kinase alpha-6 (Homo sapiens) (UniProt Q9UK32); conditions: Compound concentration 1000.0 nM
[18] = molecular target: Vascular endothelial growth factor receptor 1 (Homo sapiens) (UniProt P17948); conditions: Compound concentration 1000.0 nM
[19] = molecular target: Serine/threonine-protein kinase OSR1 (Homo sapiens) (UniProt O95747); conditions: Compound concentration 1000.0 nM
[20] = molecular target: Histamine H4 receptor (Homo sapiens) (UniProt Q9H3N8); conditions: Compound concentration 10.0 uM
[21] = molecular target: Calcium/calmodulin-dependent protein kinase type II subunit alpha (Homo sapiens) (UniProt Q9UQM7); conditions: Compound concentration 1000.0 nM
[22] = molecular target: Mitogen-activated protein kinase kinase kinase kinase 5 (Homo sapiens) (UniProt Q9Y4K4); conditions: Compound concentration 1000.0 nM
Sequence of Mitogen-activated protein kinase kinase kinase kinase 5 (Homo sapiens) (Q9Y4K4 whole entry, looked up, canonical isoform): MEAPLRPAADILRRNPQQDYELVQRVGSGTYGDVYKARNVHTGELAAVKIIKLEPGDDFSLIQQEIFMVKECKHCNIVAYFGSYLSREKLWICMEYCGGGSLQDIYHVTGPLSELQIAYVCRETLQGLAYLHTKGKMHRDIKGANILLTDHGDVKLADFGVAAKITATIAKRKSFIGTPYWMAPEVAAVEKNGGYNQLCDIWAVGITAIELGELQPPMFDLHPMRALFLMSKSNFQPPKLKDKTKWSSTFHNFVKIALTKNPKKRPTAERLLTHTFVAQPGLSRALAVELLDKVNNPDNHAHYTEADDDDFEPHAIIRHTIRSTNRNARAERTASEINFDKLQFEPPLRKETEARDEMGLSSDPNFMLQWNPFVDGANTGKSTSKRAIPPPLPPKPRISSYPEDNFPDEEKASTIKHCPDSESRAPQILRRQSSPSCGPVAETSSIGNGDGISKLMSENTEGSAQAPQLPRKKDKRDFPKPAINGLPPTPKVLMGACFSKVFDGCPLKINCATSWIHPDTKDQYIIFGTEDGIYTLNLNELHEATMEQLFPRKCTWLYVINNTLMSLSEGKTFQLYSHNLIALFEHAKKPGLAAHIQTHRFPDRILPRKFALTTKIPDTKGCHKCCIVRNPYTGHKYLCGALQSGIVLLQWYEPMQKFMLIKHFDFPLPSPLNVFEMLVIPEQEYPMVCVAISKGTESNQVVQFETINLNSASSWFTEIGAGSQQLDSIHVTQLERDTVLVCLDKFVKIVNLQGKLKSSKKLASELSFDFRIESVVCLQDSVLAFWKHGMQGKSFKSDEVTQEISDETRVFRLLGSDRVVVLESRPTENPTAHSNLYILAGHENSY

[23] = tested on: Phosphatidylinositol 4,5-bisphosphate 3-kinase catalytic subunit alpha isoform (Homo sapiens), P42336 [H1047Y]; conditions: Compound concentration 1000.0 nM
Sequence of Phosphatidylinositol 4,5-bisphosphate 3-kinase catalytic subunit alpha isoform (Homo sapiens), P42336 [H1047Y] (P42336 whole entry H1047Y, canonical isoform): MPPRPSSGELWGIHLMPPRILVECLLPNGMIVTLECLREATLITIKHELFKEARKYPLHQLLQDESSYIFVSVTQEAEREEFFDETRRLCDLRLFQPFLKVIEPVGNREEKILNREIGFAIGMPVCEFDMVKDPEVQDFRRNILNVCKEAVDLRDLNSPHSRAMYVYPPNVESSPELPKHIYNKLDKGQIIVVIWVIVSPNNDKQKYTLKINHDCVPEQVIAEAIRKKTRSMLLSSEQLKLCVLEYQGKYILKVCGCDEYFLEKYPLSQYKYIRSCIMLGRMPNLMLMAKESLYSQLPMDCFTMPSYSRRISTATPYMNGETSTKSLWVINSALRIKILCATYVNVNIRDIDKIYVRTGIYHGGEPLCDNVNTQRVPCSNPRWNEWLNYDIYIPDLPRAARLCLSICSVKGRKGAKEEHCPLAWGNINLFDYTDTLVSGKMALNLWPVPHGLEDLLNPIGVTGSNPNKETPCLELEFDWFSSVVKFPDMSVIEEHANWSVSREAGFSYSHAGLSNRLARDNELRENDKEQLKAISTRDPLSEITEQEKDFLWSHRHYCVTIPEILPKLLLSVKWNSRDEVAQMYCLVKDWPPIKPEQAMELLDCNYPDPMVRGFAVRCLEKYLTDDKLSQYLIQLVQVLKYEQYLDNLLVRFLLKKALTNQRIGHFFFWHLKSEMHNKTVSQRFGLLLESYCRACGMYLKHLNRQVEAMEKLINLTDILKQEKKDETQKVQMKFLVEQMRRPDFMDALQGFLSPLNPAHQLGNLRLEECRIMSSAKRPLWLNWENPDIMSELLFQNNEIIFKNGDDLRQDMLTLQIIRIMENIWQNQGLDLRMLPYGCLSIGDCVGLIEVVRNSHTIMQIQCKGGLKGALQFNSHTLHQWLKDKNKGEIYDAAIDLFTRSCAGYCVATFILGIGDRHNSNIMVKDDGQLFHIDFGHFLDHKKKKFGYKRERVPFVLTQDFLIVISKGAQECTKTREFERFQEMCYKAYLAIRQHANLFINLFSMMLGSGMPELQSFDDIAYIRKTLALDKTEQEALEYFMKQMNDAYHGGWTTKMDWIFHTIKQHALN

[24] = molecular target: Epidermal growth factor receptor (Homo sapiens) (UniProt P00533); conditions: Compound concentration 1000.0 nM
[25] = molecular target: Ribosomal protein S6 kinase alpha-4 (Homo sapiens) (UniProt O75676); conditions: Compound concentration 1000.0 nM
[26] = molecular target: T1, Ephrin type-B receptor 3 (Homo sapiens) (UniProt P54753); conditions: Compound concentration 1000.0 nM
T1 sequence (whole entry): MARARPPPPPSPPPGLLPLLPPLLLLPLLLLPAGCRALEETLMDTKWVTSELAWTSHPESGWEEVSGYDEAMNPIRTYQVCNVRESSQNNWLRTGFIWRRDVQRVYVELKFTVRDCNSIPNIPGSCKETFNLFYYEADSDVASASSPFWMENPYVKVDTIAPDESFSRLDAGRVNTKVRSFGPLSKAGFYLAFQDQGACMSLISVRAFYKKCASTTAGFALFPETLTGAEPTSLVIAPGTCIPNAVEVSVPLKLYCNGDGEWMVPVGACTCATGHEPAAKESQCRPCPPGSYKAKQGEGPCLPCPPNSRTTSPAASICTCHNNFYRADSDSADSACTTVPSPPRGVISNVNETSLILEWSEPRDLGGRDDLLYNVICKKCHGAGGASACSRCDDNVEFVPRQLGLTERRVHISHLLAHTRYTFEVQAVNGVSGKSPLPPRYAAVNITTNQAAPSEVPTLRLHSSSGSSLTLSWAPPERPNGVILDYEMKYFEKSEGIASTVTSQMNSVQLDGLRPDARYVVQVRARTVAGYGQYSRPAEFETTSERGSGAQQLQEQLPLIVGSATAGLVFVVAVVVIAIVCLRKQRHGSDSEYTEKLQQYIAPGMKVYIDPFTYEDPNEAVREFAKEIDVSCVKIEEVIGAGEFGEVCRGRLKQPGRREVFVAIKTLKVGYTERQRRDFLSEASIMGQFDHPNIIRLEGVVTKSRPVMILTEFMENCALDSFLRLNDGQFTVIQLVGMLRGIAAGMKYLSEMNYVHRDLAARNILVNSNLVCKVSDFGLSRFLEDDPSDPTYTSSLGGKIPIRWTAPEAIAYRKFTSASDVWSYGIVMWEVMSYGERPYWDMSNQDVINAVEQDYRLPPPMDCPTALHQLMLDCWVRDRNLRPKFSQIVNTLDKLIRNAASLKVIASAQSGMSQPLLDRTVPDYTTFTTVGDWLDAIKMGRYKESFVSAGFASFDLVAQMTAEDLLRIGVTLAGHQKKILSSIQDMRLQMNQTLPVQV

[27] = molecular target: Mitogen-activated protein kinase 9 (Homo sapiens) (UniProt P45984); conditions: Compound concentration 1000.0 nM
[28] = tested on: Serine/threonine-protein kinase B-raf (Homo sapiens), P15056 [V600E]; conditions: Compound concentration 1000.0 nM
[29] = molecular target: Beta-1 adrenergic receptor (Homo sapiens) (UniProt P08588); conditions: Compound concentration 10.0 uM
Sequence of Beta-1 adrenergic receptor (Homo sapiens) (P08588 whole entry, looked up): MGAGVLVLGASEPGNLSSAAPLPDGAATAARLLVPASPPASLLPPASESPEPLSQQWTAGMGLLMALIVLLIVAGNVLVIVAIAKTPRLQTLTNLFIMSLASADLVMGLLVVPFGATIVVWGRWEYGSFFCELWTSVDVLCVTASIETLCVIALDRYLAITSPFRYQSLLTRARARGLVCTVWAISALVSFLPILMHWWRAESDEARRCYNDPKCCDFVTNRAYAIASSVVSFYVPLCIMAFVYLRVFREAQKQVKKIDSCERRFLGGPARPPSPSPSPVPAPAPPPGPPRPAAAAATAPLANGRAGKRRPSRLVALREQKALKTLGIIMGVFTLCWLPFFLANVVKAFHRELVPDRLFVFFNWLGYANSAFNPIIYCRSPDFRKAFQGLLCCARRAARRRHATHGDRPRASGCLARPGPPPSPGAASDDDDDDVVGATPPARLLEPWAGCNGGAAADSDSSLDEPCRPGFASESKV

[30] = molecular target: Serine/threonine-protein kinase 32A (Homo sapiens) (UniProt Q8WU08); conditions: Compound concentration 1000.0 nM
[31] = molecular target: Tyrosine-protein kinase ABL1 (Homo sapiens) (UniProt P00519); conditions: Compound concentration 1000.0 nM
Sequence of Tyrosine-protein kinase ABL1 (Homo sapiens) (P00519 whole entry): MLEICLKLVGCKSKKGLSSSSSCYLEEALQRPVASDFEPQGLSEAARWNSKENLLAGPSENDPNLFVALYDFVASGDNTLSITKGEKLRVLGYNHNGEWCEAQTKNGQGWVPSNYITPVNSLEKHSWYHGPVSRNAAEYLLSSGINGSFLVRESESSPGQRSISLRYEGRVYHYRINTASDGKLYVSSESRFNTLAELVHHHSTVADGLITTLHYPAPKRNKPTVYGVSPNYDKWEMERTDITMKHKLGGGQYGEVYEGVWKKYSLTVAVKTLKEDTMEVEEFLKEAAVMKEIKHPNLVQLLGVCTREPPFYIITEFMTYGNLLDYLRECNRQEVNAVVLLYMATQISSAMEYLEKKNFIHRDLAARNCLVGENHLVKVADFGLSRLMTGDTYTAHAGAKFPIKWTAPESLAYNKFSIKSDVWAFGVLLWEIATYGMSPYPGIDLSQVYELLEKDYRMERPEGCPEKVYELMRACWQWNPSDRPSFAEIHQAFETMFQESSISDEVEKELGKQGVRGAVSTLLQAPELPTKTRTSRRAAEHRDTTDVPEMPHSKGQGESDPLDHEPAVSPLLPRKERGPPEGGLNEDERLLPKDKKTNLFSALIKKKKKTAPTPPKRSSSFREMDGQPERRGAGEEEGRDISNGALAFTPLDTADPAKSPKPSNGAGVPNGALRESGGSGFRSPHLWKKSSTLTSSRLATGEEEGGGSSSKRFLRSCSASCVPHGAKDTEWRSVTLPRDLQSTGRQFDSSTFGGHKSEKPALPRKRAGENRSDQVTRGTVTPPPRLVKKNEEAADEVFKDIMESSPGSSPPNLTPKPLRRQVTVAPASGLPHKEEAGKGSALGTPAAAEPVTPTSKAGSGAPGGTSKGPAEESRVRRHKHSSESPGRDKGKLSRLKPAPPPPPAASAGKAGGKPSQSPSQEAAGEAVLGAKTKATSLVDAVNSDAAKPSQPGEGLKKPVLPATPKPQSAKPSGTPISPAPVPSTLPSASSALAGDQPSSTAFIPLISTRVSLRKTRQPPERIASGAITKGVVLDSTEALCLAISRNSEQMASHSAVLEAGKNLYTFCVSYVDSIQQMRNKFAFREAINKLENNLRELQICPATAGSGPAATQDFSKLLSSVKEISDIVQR

Sequence of Protein-tyrosine kinase 6 (Homo sapiens) (Q13882 whole entry, looked up): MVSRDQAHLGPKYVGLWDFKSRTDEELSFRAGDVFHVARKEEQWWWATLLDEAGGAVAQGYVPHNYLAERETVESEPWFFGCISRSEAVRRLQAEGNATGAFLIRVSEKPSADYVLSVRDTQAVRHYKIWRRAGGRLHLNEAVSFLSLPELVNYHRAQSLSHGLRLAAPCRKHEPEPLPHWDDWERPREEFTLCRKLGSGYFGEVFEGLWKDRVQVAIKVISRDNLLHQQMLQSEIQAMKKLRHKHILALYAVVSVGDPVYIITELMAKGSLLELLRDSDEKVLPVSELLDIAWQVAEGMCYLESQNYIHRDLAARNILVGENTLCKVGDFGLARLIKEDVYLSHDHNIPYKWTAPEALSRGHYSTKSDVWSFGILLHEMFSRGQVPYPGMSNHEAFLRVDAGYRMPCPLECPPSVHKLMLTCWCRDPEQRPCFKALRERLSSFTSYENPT

| SMILES | residual activity [1] | residual activity [2] | residual activity [3] | residual activity [4] | residual activity [5] | residual activity [6] | residual activity [7] | residual activity [8] | residual activity [9] | residual activity [10] | residual activity [11] | residual activity [12] | residual activity [13] | residual activity [14] | residual activity [15] | residual activity [16] | residual activity [17] | residual activity [18] | residual activity [19] | inhibition [20] | also measured |
| --- | --- | --- | --- | --- | --- | --- | --- | --- | --- | --- | --- | --- | --- | --- | --- | --- | --- | --- | --- | --- | --- |
| Cc1nc(C2CCN(C(=O)c3ccc(OC(F)(F)F)cc3N)CC2)c2ncc(N3CCN(C)CC3)cc2n1 [BAY-693] | 100% | 85% | 100% | 97% | 100% | 100% | 81% | 100% | 79% | 100% | 100% | 87% | 100% | 100% | 78% | 100% | 100% | 88% | 49% | -5.28% | residual activity [21]: 93%; residual activity [22]: 100%; residual activity [23]: 69%; residual activity [24]: 86%; residual activity [25]: 100%; residual activity [26]: 100%; residual activity [27]: 100%; residual activity [28]: 100%; inhibition [29]: 17.9%; residual activity [30]: 86%; residual activity [31]: 92% |
| CN1CCN(c2cnc3c(C4CCN(C(=O)c5ccc(OC(F)(F)F)cc5N)CC4)ncnc3c2)CC1 [BAY-885] | 100% | 100% | 91% | 100% | 88% | 93% | 95% | 88% | 95% | 100% | 100% | 100% | 100% | 100% | 79% | 100% | 100% | 76% | 100% | -1.34% | residual activity [21]: 69%; residual activity [22]: 99%; residual activity [23]: 92%; residual activity [24]: 99%; residual activity [25]: 100%; residual activity [26]: 100%; residual activity [27]: 100%; residual activity [28]: 100%; inhibition [29]: 12.6%; residual activity [30]: 94%; residual activity [31]: 91% |
